Legend:
TLR7 = molecular target: T1, TLR7 (Homo sapiens, UniProt Q9NYK1); test: Human PBMC cell-based assay, TLR7 agonist GS-986 stimulation, cytokine (IL-6 and IFNα) readout; settings: human PBMCs, GS-986 400 nM, 6 hours; Table 26; read-out: TLR-7 EC50
T1 construct: lymphocytes, monocytes and dendritic cells that express TLR7, TLR8 and TLR9; endogenous in cells; host or cells: human PBMCs from healthy donors
T1 sequence (Q9NYK1 27-1049): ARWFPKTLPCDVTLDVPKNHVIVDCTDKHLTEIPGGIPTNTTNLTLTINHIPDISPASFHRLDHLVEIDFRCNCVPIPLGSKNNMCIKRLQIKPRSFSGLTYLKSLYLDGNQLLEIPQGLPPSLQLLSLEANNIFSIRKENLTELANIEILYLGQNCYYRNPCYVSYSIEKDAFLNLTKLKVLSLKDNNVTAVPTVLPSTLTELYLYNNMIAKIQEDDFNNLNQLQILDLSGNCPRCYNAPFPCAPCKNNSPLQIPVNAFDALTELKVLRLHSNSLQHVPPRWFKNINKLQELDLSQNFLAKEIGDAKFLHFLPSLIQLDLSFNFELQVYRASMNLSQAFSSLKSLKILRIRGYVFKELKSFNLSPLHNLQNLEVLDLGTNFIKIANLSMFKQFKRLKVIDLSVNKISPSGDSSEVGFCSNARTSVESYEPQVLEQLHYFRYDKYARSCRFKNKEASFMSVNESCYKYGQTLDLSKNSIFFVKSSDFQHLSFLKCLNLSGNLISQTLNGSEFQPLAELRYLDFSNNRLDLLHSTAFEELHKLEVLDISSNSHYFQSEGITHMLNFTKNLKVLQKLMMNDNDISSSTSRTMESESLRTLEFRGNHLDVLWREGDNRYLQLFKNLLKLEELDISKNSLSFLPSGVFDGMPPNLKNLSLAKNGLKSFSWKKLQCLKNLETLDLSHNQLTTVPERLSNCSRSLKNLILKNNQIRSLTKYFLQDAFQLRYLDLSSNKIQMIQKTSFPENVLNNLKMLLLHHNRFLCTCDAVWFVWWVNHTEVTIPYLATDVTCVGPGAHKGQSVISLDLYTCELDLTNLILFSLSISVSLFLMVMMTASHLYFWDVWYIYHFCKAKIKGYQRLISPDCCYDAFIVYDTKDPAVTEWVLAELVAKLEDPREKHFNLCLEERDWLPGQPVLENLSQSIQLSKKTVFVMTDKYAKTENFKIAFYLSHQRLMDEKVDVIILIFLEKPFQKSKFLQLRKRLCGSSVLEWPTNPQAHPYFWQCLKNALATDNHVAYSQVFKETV
How it was run: (§1)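 Readout is IL-6 and IFNα in supernatants, quantified by electrochemiluminescence, with EC50 from a sigmoidal fit of cytokine versus concentration. Healthy-donor human PBMCs, 100,000 per well, got antagonist for 1 h at 37 °C, then 6 h agonist exposure: TLR7 via GS-986 at 400 nM final, TLR9 via ODN-2216 at 3 μM final.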

TLR9 = molecular target: T2, TLR9 (Homo sapiens, UniProt Q9NR96); test: Human PBMC cell-based assay, TLR9 agonist ODN-2216 stimulation, cytokine (IL-6 and IFNα) readout; settings: human PBMCs, ODN-2216 3 μM, 6 hours; Table 26; read-out: TLR-9 EC50
T2 construct: lymphocytes, monocytes and dendritic cells that express TLR7, TLR8 and TLR9; endogenous in cells; host or cells: human PBMCs from healthy donors
T2 sequence (Q9NR96 26-1032): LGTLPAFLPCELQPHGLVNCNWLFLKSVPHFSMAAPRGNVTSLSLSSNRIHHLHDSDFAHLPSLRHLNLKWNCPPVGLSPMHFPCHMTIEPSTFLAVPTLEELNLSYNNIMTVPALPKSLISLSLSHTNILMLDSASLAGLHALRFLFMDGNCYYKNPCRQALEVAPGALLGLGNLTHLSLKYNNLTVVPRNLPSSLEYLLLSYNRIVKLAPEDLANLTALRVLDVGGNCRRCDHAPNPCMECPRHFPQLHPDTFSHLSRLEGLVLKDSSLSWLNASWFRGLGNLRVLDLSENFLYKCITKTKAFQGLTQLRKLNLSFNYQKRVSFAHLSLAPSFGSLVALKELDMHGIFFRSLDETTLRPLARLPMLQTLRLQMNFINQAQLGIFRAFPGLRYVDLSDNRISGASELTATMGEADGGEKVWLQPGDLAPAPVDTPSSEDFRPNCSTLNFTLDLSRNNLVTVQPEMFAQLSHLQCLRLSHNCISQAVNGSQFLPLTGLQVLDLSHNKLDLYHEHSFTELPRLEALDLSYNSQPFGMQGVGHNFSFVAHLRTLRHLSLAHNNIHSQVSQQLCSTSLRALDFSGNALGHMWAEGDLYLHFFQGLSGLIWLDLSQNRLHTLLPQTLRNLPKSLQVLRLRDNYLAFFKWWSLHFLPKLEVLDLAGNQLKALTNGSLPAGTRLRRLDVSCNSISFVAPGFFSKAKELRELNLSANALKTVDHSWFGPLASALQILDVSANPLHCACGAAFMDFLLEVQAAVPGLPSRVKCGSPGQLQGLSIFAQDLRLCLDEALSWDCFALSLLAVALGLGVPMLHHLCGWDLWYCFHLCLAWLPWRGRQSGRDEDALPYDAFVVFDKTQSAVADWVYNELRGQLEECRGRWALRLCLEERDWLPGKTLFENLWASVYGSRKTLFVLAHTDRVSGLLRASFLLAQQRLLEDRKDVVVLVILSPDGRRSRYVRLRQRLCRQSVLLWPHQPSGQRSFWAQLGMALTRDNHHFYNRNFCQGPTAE
How it was run: as §1

Row | EC50 (TLR7) [nM] | EC50 (TLR9) [nM] | SMILES
1 | 226 | 87.2 | Cc1cc(-c2[nH]c3cc(-c4cccc(C(=O)N5CCC(N)CC5)c4)ccc3c2C)cc(C)n1 [Example 122]
2 | 374 | 274 | Cc1cc(-c2[nH]c3cc(-c4cccc(C(=O)N5CC6CNCC6C5)c4)ccc3c2C)cc(C)n1 (stereo not drawn) [Example 123]
3 | 55.5 | 111 | Cc1cc(-c2[nH]c3cc(-c4ccc(C(=O)N5CC[C@@H](N)C5)cc4)ccc3c2C)cc(C)n1 [Example 124]
4 | 74.8 | 98.3 | Cc1cc(-c2[nH]c3cc(-c4ccc(C(=O)N5CCC(N)CC5)cc4)ccc3c2C)cc(C)n1 [Example 125]
5 | 48 | 294 | Cc1cc(-c2[nH]c3cc(-c4ccc(C(=O)N5CC6CNCC6C5)cc4)ccc3c2C)cc(C)n1 (stereo not drawn) [Example 126]
6 | 98.9 | 74.7 | Cc1cc(-c2[nH]c3cc(-c4cccc(C(=O)N5CCN6CCC5C6)c4)ccc3c2C)cc(C)n1 (stereo not drawn) [Example 127]
7 | 146 | 83.3 | Cc1cc(-c2[nH]c3cc(-c4ccc(C(=O)N5CCN6CCC5C6)cc4)ccc3c2C)cc(C)n1 (stereo not drawn) [Example 128]
8 | 14.4 | 24.7 | Cc1cc(-c2[nH]c3cc(-c4ccc(N5CCN(CC(C)(C)O)CC5)nc4)ccc3c2C)cc(C)n1 [Example 129, 1-(4-(5-(2-(2,6-dimethylpyridin-4-yl)-3-methyl-1H-indol-6-yl)pyridin-2-yl)piperazin-1-yl)-2-methylpropan-2-ol]
9 | 16.3 | 18.2 | Cc1cc(-c2[nH]c3cc(-c4ccc(N5CC[C@@H](NCCO)C5)nc4)ccc3c2C)cc(C)n1 [Example 130, (R)-2-((1-(5-(2-(2,6-dimethylpyridin-4-yl)-3-methyl-1H-indol-6-yl)pyridin-2-yl)pyrrolidin-3-yl)amino)ethan-1-ol]
10 | 17.9 | 14.6 | Cc1cc(-c2[nH]c3cc(-c4ccc(N5CCC(NCCO)CC5)nc4)ccc3c2C)cc(C)n1 [Example 131, 2-((1-(5-(2-(2,6-dimethylpyridin-4-yl)-3-methyl-1H-indol-6-yl)pyridin-2-yl)piperidin-4-yl)amino)ethan-1-ol]
11 | 5.1 | 10.6 | Cc1cc(-c2[nH]c3cc(-c4ccc(C5=CCNCC5)nc4)ccc3c2C)cc(C)n1 [Example 132, 2-(2,6-dimethylpyridin-4-yl)-3-methyl-6-(1′,2′,3′,6′-tetrahydro-[2,4′-bipyridin]-5-yl)-1H-indole]
12 | 41.9 | 58.9 | Cc1cc(-c2[nH]c3cc(-c4ccc(N5CCN(C(=O)[C@H]6CCCN6)CC5)nc4)ccc3c2C)cc(C)n1 [Example 134, (R)-2-(2,6-dimethylpyridin-4-yl)-3-methyl-6-(6-(4-prolylpiperazin-1-yl)pyridin-3-yl)-1H-indole]
13 | 73.9 | 41.3 | Cc1cc(-c2[nH]c3cc(-c4ccc(N5CCN(C(=O)[C@@H]6CCCN6)CC5)nc4)ccc3c2C)cc(C)n1 [Example 135]
14 | 37.8 | 45.6 | CNCC(=O)N1CCN(c2ccc(-c3ccc4c(C)c(-c5cc(C)nc(C)c5)[nH]c4c3)cn2)CC1 [Example 136]
15 | 45.9 | 119 | Cc1cc(-c2[nH]c3cc(-c4ccc(N5CCN(C(=O)CN)CC5)nc4)ccc3c2C)cc(C)n1 [Example 137]
16 | 415 | 288 | Cc1cc(-c2[nH]c3cc(-c4ccc(N5CCN(C(=O)[C@@H]6CC(F)(F)CN6)CC5)nc4)ccc3c2C)cc(C)n1 [Example 138]
17 | 93.5 | 203 | Cc1cc(-c2[nH]c3cc(-c4ccc(N5CCN(C(=O)[C@@H]6CCNC6)CC5)nc4)ccc3c2C)cc(C)n1 [Example 139]
18 | 30.5 | 42.3 | Cc1cc(-c2[nH]c3cc(-c4ccc(N5CCN(C(=O)C67CNC(C6)C7)CC5)nc4)ccc3c2C)cc(C)n1 [Example 140]

— patent publication US20250002471A1 (Gilead Sciences, Inc., priority 2020, published 2025)
